According to US20250304549A1, “HYDROXYAMIDE DERIVATIVE AND USE THEREOF” (SICHUAN HUIYU PHARMACEUTICAL CO., LTD., priority 2022, published 2025):
Counter-ions that a name gives are not always drawn.

Key:
DU145 cells = test: In vitro cell inhibition assay - DU145 cell proliferation (CellTiter-Glo); type: cell-based; conditions: Homo sapiens, DU-145, Du145 prostate cancer cell proliferation
Outline: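 Viability read-out was CellTiter-Glo luminescence after a 6-day, 37° C exposure of DU145 cells (1×10^3/well, 10% FBS RPMI-640) to 8 compound concentrations in 5-fold steps.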

LSD1 = LSD1 (Homo sapiens (Human), UniProt O60341); test: In vitro enzyme inhibition assay - LSD1 (HTRF); type: biochemical
HDAC1 = HDAC1 (Homo sapiens (Human), UniProt Q13547); test: In vitro enzyme inhibition assay - HDAC (HDAC-Glo I/II), HDAC1; type: biochemical; conditions: read-out: HDAC IC50 (nM) HDAC 1
Chain of HDAC1 (Q13547 whole entry): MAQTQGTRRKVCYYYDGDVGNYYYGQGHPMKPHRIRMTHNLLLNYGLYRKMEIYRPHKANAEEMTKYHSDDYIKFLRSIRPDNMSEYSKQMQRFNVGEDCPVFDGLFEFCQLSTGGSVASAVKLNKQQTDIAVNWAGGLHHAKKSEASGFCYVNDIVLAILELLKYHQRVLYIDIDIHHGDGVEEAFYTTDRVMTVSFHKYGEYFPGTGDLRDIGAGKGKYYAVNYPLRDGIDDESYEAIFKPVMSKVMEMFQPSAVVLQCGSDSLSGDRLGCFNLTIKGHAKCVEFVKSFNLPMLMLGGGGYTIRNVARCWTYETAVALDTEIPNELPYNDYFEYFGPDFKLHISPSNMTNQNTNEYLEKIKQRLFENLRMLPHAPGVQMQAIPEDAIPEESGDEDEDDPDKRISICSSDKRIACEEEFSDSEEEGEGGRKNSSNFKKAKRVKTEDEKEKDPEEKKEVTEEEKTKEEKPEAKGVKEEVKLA
Outline: (§1)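 Eight compound concentrations (5-fold gradient; 1 mM DMSO stock) were assayed by HDAC-Glo I/II luminescence. IC50 was obtained by four-parameter fitting.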

NCI-H69 cells = test: In vitro cell inhibition assay - NCI-H69 cell proliferation (CellTiter-Glo); type: cell-based; conditions: Homo sapiens, NCI-H69, H69 small cell lung cancer cell proliferation
Outline: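 Luminescence from CellTiter-Glo reagent served as the viability read-out after cells were exposed to compounds for 7 days at 37° C. Eight concentrations in a 5-fold series were tested in medium with 20% FBS. Inhibition was normalised to untreated and cell-free wells before IC50 fitting.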

NCI-H526 cells = test: In vitro cell inhibition assay - NCI-H526 cell proliferation (CellTiter-Glo); type: cell-based; conditions: Homo sapiens, NCI-H526, 120 h, H526 small cell lung cancer cell proliferation, 5 days
Outline: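 NCI-H526 cells plated at 1×10^3 per well overnight, then treated with 8 concentrations (5-fold dilutions) in RPMI-640 with 10% FBS for 5 days at 37° C., 5% CO2. Viable cells quantified by CellTiter-Glo luminescence; IC50 fitted from inhibition rates relative to no-inhibitor and no-cell controls.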

pan-HDAC = test: In vitro enzyme inhibition assay - HDAC (HDAC-Glo I/II), pan-HDAC; type: biochemical
Outline: as §1

NCI-H1417 cells = test: In vitro cell inhibition assay - H1417 cell proliferation (CellTiter-Glo); type: cell-based; conditions: Homo sapiens, NCI-H1417, H1417 small cell lung cancer cell proliferation
Outline: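 Cells exposed to 8 compound concentrations (5-fold dilutions) in BEGM with 10% FBS for 7 days at 37° C., 5% CO2. Viable cells measured by CellTiter-Glo luminescence; inhibition versus no-inhibitor and no-cell controls, IC50 fitted.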

HDAC8 = HDAC8 (Homo sapiens (Human), UniProt Q9BY41); test: In vitro enzyme inhibition assay - HDAC (HDAC-Glo I/II), HDAC8; type: biochemical; conditions: read-out: HDAC IC50 (nM) HDAC 8
Chain of HDAC8 (Q9BY41 whole entry): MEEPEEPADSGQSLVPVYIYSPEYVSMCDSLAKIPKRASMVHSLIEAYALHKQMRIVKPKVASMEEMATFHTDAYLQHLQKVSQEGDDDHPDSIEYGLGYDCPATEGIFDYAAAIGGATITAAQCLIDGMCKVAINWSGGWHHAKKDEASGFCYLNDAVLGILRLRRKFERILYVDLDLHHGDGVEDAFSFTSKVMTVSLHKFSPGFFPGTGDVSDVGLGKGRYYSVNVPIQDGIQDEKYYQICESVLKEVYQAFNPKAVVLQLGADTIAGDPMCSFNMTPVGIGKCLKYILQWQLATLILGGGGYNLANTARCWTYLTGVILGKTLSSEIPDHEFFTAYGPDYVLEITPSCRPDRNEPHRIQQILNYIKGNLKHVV
Outline: as §1

| SMILES | IC50 (DU145 cells) [nM] | IC50 (LSD1) [nM] | IC50 (HDAC1) [nM] | IC50 (NCI-H69 cells) [nM] | IC50 (NCI-H526 cells) [nM] | IC50 (pan-HDAC) [nM] | IC50 (NCI-H1417 cells) [nM] | IC50 (HDAC8) [nM] |
| --- | --- | --- | --- | --- | --- | --- | --- | --- |
| COc1ccc(-c2cnc(N3CCC(NCc4cnc(/C=C/C(=O)NO)nc4)CC3)c(C#N)c2-c2ccc(C#N)c(F)c2)cc1O [Example 106, (E)-3-(5-(((1-(3-Cyano-4-(4-cyano-3-fluorophenyl)-5-(3-hydroxy-4-methoxyphenyl)pyridin-2-yl)piperidin-4-yl)amino)methyl)pyrimidin-2-yl)-N-hydroxyacrylamide formate] | 13.6 | 2.62 | 3.81 | 3.48 | 7.09 | 4.85 | 3.29 | 13.1 |
| N#Cc1ccc(-c2c(-c3ccc(O)c(O)c3)cnc(N3CCC(NCc4ccc(/C=C/C(=O)NO)cc4)CC3)c2C#N)cc1F [Example 137, (E)-3-(4-(((1-(3-Cyano-4-(4-cyano-3-fluorophenyl)-5-(3,4-dihydroxyphenyl)pyridin-2-yl)piperidin-4-yl)amino)methyl)phenyl)-N-hydroxyacrylamide hydrochloride] | 63.5 | 27.8 | 0.52 | 7.01 | 22.9 | 6.04 | 5.43 | 107 |
| COc1ccc(-c2cnc(N3CCC(NCc4ccc(/C=C/C(=O)NO)cc4)CC3)c(C#N)c2-c2ccc(C#N)cc2F)cc1O [Example 134, (E)-3-(4-(((1-(3-Cyano-4-(4-cyano-2-fluorophenyl)-5-(3-hydroxy-4-methoxyphenyl)pyridin-2-yl)piperidin-4-yl)amino)methyl)phenyl)-N-hydroxyacrylamide formate] | 20.3 | 13.6 | 0.32 | 8.37 | 13.8 | 3.55 | 5.1 | 46 |
| COc1cc(F)c(-c2cnc(N3CCC(NCc4ccc(/C=C/C(=O)NO)cc4)CC3)c(C#N)c2-c2ccc(C#N)c(F)c2)cc1O [Example 130, (E)-3-(4-((1-(3-Cyano-4-(4-cyano-3-fluorophenyl)-5-(2-fluoro-5-hydroxy-4-methoxyphenyl)pyridin-2-yl)piperidin-4-yl)amino)methyl) phenyl)-N-hydroxyacrylamide formate] | 25 | 1.89 | 0.77 | 25.2 | 22.8 | 6.13 | 1.09 | 220 |
| N#Cc1ccc(-c2cc(OCCCCCCC(=O)NO)cc(N3CCC(N)CC3)n2)cc1F [Example 31, 7-((2-(4-aminopiperidin-1-yl)-6-(4-cyano-3-fluorophenyl)pyridin-4-yl)oxy)-N-hydroxyheptanamide hydrochloride] | 93.6 | 311 | 1.78 | 410 | 37.4 | 0.25 | 51 | 263 |
| COc1ccc(-c2cnc(N3CCC(NCc4ccc(/C=C/C(=O)NO)cn4)CC3)c(C#N)c2-c2ccc(C#N)c(F)c2)cc1O [Example 104, (E)-3-(6-((1-(3-Cyano-4-(4-cyano-3-fluorophenyl)-5-(3-hydroxy-4-methoxyphenyl)pyridin-2-yl)piperidin-4-yl)amino)methyl) pyridin-3-yl)-N-hydroxyacrylamide formate] | 24.8 | 0.71 | 5.3 | 2.29 | 16.9 | 10.7 | 6.58 | 70.1 |
| COc1ccc(-c2cnc(N3CCC(NCc4cccc(/C=C/C(=O)NO)c4)CC3)c(C#N)c2-c2ccc(C#N)c(F)c2)cc1O [Example 114, (E)-3-(3-(3-Cyano-4-(4-cyano-3-fluorophenyl)-5-(3-hydroxy-4-methoxyphenyl)pyridin-2-yl)piperidin-4-yl)amino)methyl) phenyl)-N-hydroxyacrylamide formate] | 391 | 0.97 | 178 | 78.2 | 155 | 175 | 9.4 | 571 |
| N#Cc1ccc(-c2c(-c3ccc(C4CC4)c(O)c3)cnc(N3CCC(NCc4ccc(/C=C/C(=O)NO)cc4)CC3)c2C#N)cc1F [Example 111, (E)-3-(4-((1-(3-Cyano-4-(4-cyano-3-fluorophenyl)-5-(4-cyclopropyl-3-hydroxyphenyl)pyridin-2-yl)piperidin-4-yl)amino)methyl) phenyl)-N-hydroxyacrylamide formate] | 14.2 | 1.56 | 83.1 | 3.41 | 16.2 | 65.3 | 1.98 | 358 |
| COc1ccc(-c2cnc(N3CCC(NCc4ccc(/C=C/C(=O)NO)c(OC)c4)CC3)c(C#N)c2-c2ccc(C#N)c(F)c2)cc1O [Example 108, (E)-3-(4-(((1-(3-Cyano-4-(4-cyano-3-fluorophenyl)-5-(3-hydroxy-4-methoxyphenyl)pyridin-2-yl)piperidin-4-yl)amino)methyl)-2-methoxyphenyl)-N-hydroxyacrylamide formate] | 28.6 | 2.3 | 25.8 | 16 | 13.8 | 26.6 | 4.4 | 93.1 |
| COc1ccc(-c2cnc(N3CCC(N(C)Cc4ccc(/C=C/C(=O)NO)cc4)CC3)c(C#N)c2-c2ccc(C#N)c(F)c2)cc1O [Example 42, (E)-3-(4-(((1-(3-Cyano-4-(4-cyano-3-fluorophenyl)-5-(3-hydroxy-4-methoxyphenyl)pyridin-2-yl)piperidin-4-yl)(methyl)amino)methyl)phenyl)-N-hydroxyacrylamide formate] | 108 | 0.33 | 7.33 | 39.9 | 22.8 | 9.25 | 0.38 | 328 |
| COc1ccc(-c2c(C)nc(N3CCC(NCc4ccc(/C=C/C(=O)NO)cc4)CC3)c(C#N)c2-c2ccc(C#N)c(F)c2)cc1O [Example 50, (E)-3-(4-(((1-(3-Cyano-4-(4-cyano-3-fluorophenyl)-5-(3-hydroxy-4-methoxyphenyl)-6-methylpyridin-2-yl)piperidin-4-yl)amino)methyl)phenyl)-N-hydroxyacrylamide formate] | 369 | 4.33 | 118 | 163 | 216 | 70.7 | 5.58 | 170 |
| CC(C)(O)COc1ccc(-c2cnc(N3CCC(NCc4ccc(/C=C/C(=O)NO)cc4)CC3)c(C#N)c2-c2ccc(C#N)c(F)c2)cc1O [Example 143, (E)-3-(4-(((1-(3-Cyano-4-(4-cyano-3-fluorophenyl)-5-(3-hydroxy-4-(2-hydroxy-2-methylpropoxy)phenyl)pyridin-2-yl)piperidin-4-yl)amino)methyl)phenyl)-N-hydroxyacrylamide formate] | 23.7 | 0.1 | 1.25 | 16.8 | 18.1 | 1.7 | 1.03 | 111 |
